Reference: ChEMBL document CHEMBL1153196, “Development of an in silico model for human skin permeation based on a Franz cell skin permeability assay” (Bioorg Med Chem Lett, 2010)

Assays:
[1] = Lipophilicity, log D of the compound; format: physicochemical; conditions: octanol/water
Zone of skin = assay: Permeability in human skin after 48 hrs by Franz cell permeability assay

| SMILES | logD [1] | log Pe (Zone of skin) |
| --- | --- | --- |
| C[C@H](c1ccccc1)N(C)c1cc(C(F)(F)F)c(C#N)cn1 | 5.59 | – |
| N#Cc1ccc(-c2ccccc2O)cc1C(F)(F)F | 3.63 | – |
| Cc1nn(-c2ccccc2)c(C)c1/C=N/N1CCN(Cc2ccccc2)CC1 | 3.65 | – |
| Oc1cccc2ncccc12 | 1.46 | – |
| CC(=O)Nc1cnc(-c2ccccc2)o1 | 1.22 | – |
| Cc1cc(=O)n(-c2ccccc2)n1C [ANTIPYRINE] | 0.27 | – |
| NC(=O)N1c2ccccc2C=Cc2ccccc21 [CARBAMAZEPINE] | 2.67 | 0.18 |
| NS(=O)(=O)c1cc2c(cc1Cl)N=CNS2(=O)=O [CHLOROTHIAZIDE] | -0.78 | – |
| CN(C)CCCN1c2ccccc2Sc2ccc(Cl)cc21 [CHLORPROMAZINE] | 2.15 | – |
| Cl.Clc1cccc(Cl)c1NC1=NCCN1 [CLONIDINE HYDROCHLORIDE] | 0.37 | -0.68 |
| C[C@]12C[C@H](O)[C@H]3[C@@H](CCC4=CC(=O)CC[C@@]43C)[C@@H]1CC[C@@H]2C(=O)CO [CORTICOSTERONE] | 1.76 | – |
| C[C@@H]1C[C@H]2[C@@H]3CCC4=CC(=O)C=C[C@]4(C)[C@@]3(F)[C@@H](O)C[C@]2(C)[C@H]1C(=O)CO [DESOXIMETASONE] | 2 | – |
| C[C@@H]1C[C@H]2[C@@H]3CCC4=CC(=O)C=C[C@]4(C)[C@@]3(F)[C@@H](O)C[C@]2(C)[C@@]1(O)C(=O)CO [DEXAMETHASONE] | 1.87 | – |
| CCOC(=O)[C@H](CCc1ccccc1)N[C@@H](C)C(=O)N1CCC[C@H]1C(=O)O.O=C(O)/C=C\C(=O)O [ENALAPRIL MALEATE] | -0.55 | -1.72 |
| CCCn1c(=O)[nH]c(=O)c2[nH]cnc21 [ENPROFYLLINE] | 0.27 | – |
| NS(=O)(=O)c1cc2c(cc1Cl)NCNS2(=O)=O [HYDROCHLOROTHIAZIDE] | – | -2 |
| C[C@]12CCC(=O)C=C1CC[C@@H]1[C@@H]2[C@@H](O)C[C@@]2(C)[C@H]1CC[C@]2(O)C(=O)CO [HYDROCORTISONE] | 1.43 | – |
| COc1ccc2c(c1)c(CC(=O)O)c(C)n2C(=O)c1ccc(Cl)cc1 [INDOMETHACIN] | 0.59 | – |

| SMILES | logD [1] | log Pe (Zone of skin) |
| --- | --- | --- |
| CC(C)Cn1c(=O)n(C)c(=O)c2[nH]cnc21 [ISOBUTYLMETHYLXANTHINE] | 2 | – |
| CC(C(=O)O)c1cccc(C(=O)c2ccccc2)c1 (centres undefined) [KETOPROFEN] | 0.56 | – |
| COCCc1ccc(OCC(O)CNC(C)C)cc1 (centres undefined) [METOPROLOL] | -0.81 | – |
| Clc1ccc(COC(Cn2ccnc2)c2ccc(Cl)cc2Cl)c(Cl)c1 (centres undefined) [MICONAZOLE] | 5.55 | – |
| Nc1cc(N2CCCCC2)nc(N)[n+]1[O-] [MINOXIDIL] | -3.99 | – |
| O=C(O)c1cccnc1Nc1cccc(C(F)(F)F)c1 [NIFLUMIC ACID] | 2.01 | – |
| COc1ccc2[nH]c([S+]([O-])Cc3ncc(C)c(OC)c3C)nc2c1 (centres undefined) [OMEPRAZOLE] | 2.16 | – |
| CN1C(C(=O)Nc2ccccn2)=C(O)c2ccccc2S1(=O)=O [PIROXICAM] | -0.35 | – |
| CC(=O)[C@H]1CC[C@H]2[C@@H]3CCC4=CC(=O)CC[C@]4(C)[C@H]3CC[C@]12C [PROGESTERONE] | – | 1.08 |
| CC1(C)C(=O)N(c2ccc(C#N)c(C(F)(F)F)c2)C(=O)N1CCCCO [RU-58841] | 2.41 | – |
| Nc1ccc(S(=O)(=O)Nc2ccccn2)cc1 [SULFAPYRIDINE] | 0.03 | – |
| O=C(O)c1cc(/N=N/c2ccc(S(=O)(=O)Nc3ccccn3)cc2)ccc1O [SULFASALAZINE] | 0.05 | -1.31 |
| CCN1CCCC1CNC(=O)c1cc(S(N)(=O)=O)ccc1OC (centres undefined) [SULPIRIDE] | – | -1.48 |
| CC(C)(C)NCC(O)c1cc(O)cc(O)c1 (centres undefined) [TERBUTALINE] | -2.14 | – |
| CC(C)(C)c1ccc(C(O)CCCN2CCC(C(O)(c3ccccc3)c3ccccc3)CC2)cc1 (centres undefined) [TERFENADINE] | 3.72 | – |
| C[C@]12CC[C@H]3[C@@H](CCC4=CC(=O)CC[C@@]43C)[C@@H]1CC[C@@H]2O [TESTOSTERONE] | 3.48 | – |
| CC(=O)CC(c1ccccc1)c1c(O)c2ccccc2oc1=O (centres undefined) [WARFARIN] | 1.43 | – |
